Experiments:
Assay type in all cases: in vivo
Phakopsora pachyrhizi = Phakopsora pachyrhizi / soybean / preventative (soybean rust); details: foliar, soybean leaf disks, inoculated one day after application, assessed 12-14 days after application, read-out: control of Phakopsora pachyrhizi (percent disease control compared to untreated)
Method: Phakopsora pachyrhizi/Soybean/Preventative (Soybean Rust) Soybean leaf disks are placed on water agar in multiwell plates (24-well format) and sprayed with the formulated test compound diluted in water. One day after application leaf discs are inoculated by spraying a spore suspension on the lower leaf surface. After an incubation period in a climate cabinet of 24-36 hours in darkness at 20° C. and 75% rh leaf disc are kept at 20° C. with 12 h light/day and 75% rh. The activity of a compound is assessed as percent disease control compared to untreated when an appropriate level of disease damage appears in untreated check leaf disks (12-14 days after application).

[1] = test system: Puccinia recondita f. sp. tritici; assay: Puccinia recondita f. sp. tritici / wheat / leaf disc preventative (brown rust); details: foliar, wheat leaf segments cv. Kanzler, inoculated 1 day after application, assessed 7-9 days after application, read-out: control of Puccinia recondita f. sp. tritici (percent disease control compared to untreated)
Method: Puccinia recondita f. Sp. Tritici/Wheat/Leaf Disc Preventative (Brown Rust) Wheat leaf segments cv. Kanzler are placed on agar in multiwell plates (24-well format) and sprayed with the formulated test compound diluted in water. The leaf disks are inoculated with a spore suspension of the fungus 1 day after application. The inoculated leaf segments are incubated at 19° C. and 75% rh under a light regime of 12 h light/12 h darkness in a climate cabinet and the activity of a compound is assessed as percent disease control compared to untreated when an appropriate level of disease damage appears in untreated check leaf segments (7-9 days after application).

[2] = test system: Blumeria graminis f. sp. tritici (Erysiphe graminis f. sp. tritici); assay: Blumeria graminis f. sp. tritici / wheat / leaf disc preventative (powdery mildew on wheat); details: foliar, wheat leaf segments cv. Kanzler, inoculated 1 day after application, assessed 6-8 days after application, read-out: control of Blumeria graminis f. sp. tritici (percent disease control compared to untreated)
Method: Blumeria graminis f. sp. tritici (Erysiphe graminis f. sp. tritici)/Wheat/Leaf Disc Preventative (Powdery Mildew on Wheat) Wheat leaf segments cv. Kanzler are placed on agar in a multiwell plate (24-well format) and sprayed with the formulated test compound diluted in water. The leaf disks are inoculated by shaking powdery mildew infected plants above the test plates 1 day after application. The inoculated leaf disks are incubated at 20° C. and 60% rh under a light regime of 24 h darkness followed by 12 h light/12 h darkness in a climate chamber and the activity of a compound is assessed as percent disease control compared to untreated when an appropriate level of disease damage appears on untreated check leaf segments (6-8 days after application).

[3] = test system: Puccinia recondita f. sp. tritici; assay: Puccinia recondita f. sp. tritici / wheat / leaf disc curative (brown rust); details: foliar, wheat leaf segments cv. Kanzler, compound applied 1 day after inoculation, assessed 6-8 days after application, read-out: control of Puccinia recondita f. sp. tritici (percent disease control compared to untreated)
Method: Puccinia recondita f. Sp. Tritici/Wheat/Leaf Disc Curative (Brown Rust) Wheat leaf segments cv. Kanzler are placed on agar in multiwell plates (24-well format). The leaf segments are inoculated with a spore suspension of the fungus. Plates are stored in darkness at 19° C. and 75% rh. The formulated test compound diluted in water is applied 1 day after inoculation. The leaf segments are incubated at 19° C. and 75% rh under a light regime of 12 h light/12 h darkness in a climate cabinet and the activity of a compound is assessed as percent disease control compared to untreated when an appropriate level of disease damage appears in untreated check leaf segments (6-8 days after application).

Measured: pest or weed control at 200 ppm

CCN(C)/C=N/c1cc(OC)c(C(O)(COC2CCC(C)CC2)C(F)(F)F)cc1C (stereo not shown) [E.042, N-ethyl-N′-[5-methoxy-2-methyl-4-[2,2,2-trifluoro-1-hydroxy-1-[(4-methylcyclohexoxy)methyl]ethyl]phenyl]-N-methyl-formamidine]
≥ 80%: all assays above

CC#CCOCC(O)(c1cc(C)c(/N=C/N(C)CC)cc1OC)C(F)(F)F (stereo not shown) [E.040, N′-[4-[1-(but-2-ynoxymethyl)-2,2,2-trifluoro-1-hydroxy-ethyl]-5-methoxy-2-methyl-phenyl]-N-ethyl-N-methyl-formamidine]
≥ 80%: all assays above

CCN(C)/C=N/c1cc(OC)c(C(O)(COC(C)c2ccccc2)C(F)(F)F)cc1C (stereo not shown) [E.028, N-ethyl-N′-[5-methoxy-2-methyl-4-[2,2,2-trifluoro-1-hydroxy-1-(1-phenylethoxymethyl)ethyl]phenyl]-N-methyl-formamidine]
≥ 80%: all assays above

CCCOCC(O)(c1cc(C)c(/N=C/N(C)CC)cc1OC)C(F)(F)F (stereo not shown) [E.014, N-ethyl-N′-[5-methoxy-2-methyl-4-[2,2,2-trifluoro-1-hydroxy-1-(propoxymethyl)ethyl]phenyl]-N-methyl-formamidine]
≥ 80%: all assays above

CCN(C)/C=N/c1cc(OC)c(C(O)(CON=C(C)C)C(F)(F)F)cc1C (stereo not shown) [E.036, N-ethyl-N′-[5-methoxy-2-methyl-4-[2,2,2-trifluoro-1-hydroxy-1-[(isopropylideneamino)oxymethyl]ethyl]phenyl]-N-methyl-formamidine]
≥ 80%: all assays above

CCN(C)/C=N/c1cc(OC)c(C(O)(C/C(C)=N/OCc2ccccc2)C(F)(F)F)cc1C (stereo not shown) [E.081]
≥ 80%: all assays above

C#CCOCC(O)(c1cc(C)c(/N=C/N(C)CC)cc1OC)C(F)(F)F (stereo not shown) [E.041, N-ethyl-N′-[5-methoxy-2-methyl-4-[2,2,2-trifluoro-1-hydroxy-1-(prop-2-ynoxymethyl)ethyl]phenyl]-N-methyl-formamidine]
≥ 80%: all assays above

CCOCC(O)(c1cc(C)c(/N=C/N(C)CC)cc1OC)C(F)(F)F (stereo not shown) [E.002, N′-[4-[1-(ethoxymethyl)-2,2,2-trifluoro-1-hydroxy-ethyl]-5-methoxy-2-methyl-phenyl]-N-ethyl-N-methyl-formamidine]
≥ 80%: all assays above

CCN(C)/C=N/c1cc(OC)c(C(O)(COc2ccccc2)C(F)(F)F)cc1C (stereo not shown) [E.047, N-ethyl-N′-[5-methoxy-2-methyl-4-[2,2,2-trifluoro-1-hydroxy-1-(phenoxymethyl)ethyl]phenyl]-N-methyl-formamidine]
≥ 80%: all assays above

CCN(C)/C=N/c1cc(OC)c(C(O)(C2CCC(OC(C)C)CC2)C(F)(F)F)cc1C (stereo not shown) [E.078, N-ethyl-N′-[5-methoxy-2-methyl-4-[2,2,2-trifluoro-1-hydroxy-1-(4-isopropoxycyclohexyl)ethyl]phenyl]-N-methyl-formamidine]
≥ 80%: all assays above

CCN(C)/C=N/c1cc(OC)c(C(O)(COCC2CCC2)C(F)(F)F)cc1C (stereo not shown) [E.011, N′-[4-[1-(cyclobutylmethoxymethyl)-2,2,2-trifluoro-1-hydroxy-ethyl]-5-methoxy-2-methyl-phenyl]-N-ethyl-N-methyl-formamidine]
≥ 80%: all assays above

CCN(C)/C=N/c1cc(OC)c(C(O)(CON=C2CCCCC2)C(F)(F)F)cc1C (stereo not shown) [E.037, N′-[4-[1-[(cyclohexylideneamino)oxymethyl]-2,2,2-trifluoro-1-hydroxy-ethyl]-5-methoxy-2-methyl-phenyl]-N-ethyl-N-methyl-formamidine]
≥ 80%: all assays above

CCO/N=C/CC(O)(c1cc(C)c(/N=C/N(C)CC)cc1OC)C(F)(F)F (stereo not shown) [E.056, N′-[4-[(3E)-3-ethoxyimino-1-hydroxy-1-(trifluoromethyl)propyl]-5-methoxy-2-methyl-phenyl]-N-ethyl-N-methyl-formamidine]
≥ 80%: all assays above

CCO/N=C(\C)CC(O)(c1cc(C)c(/N=C/N(C)CC)cc1OC)C(F)(F)F (stereo not shown) [E.057, N′-[4-[(3E)-3-ethoxyimino-1-hydroxy-1-(trifluoromethyl)butyl]-5-methoxy-2-methyl-phenyl]-N-ethyl-N-methyl-formamidine]
≥ 80%: all assays above

CCN(C)/C=N/c1cc(OC)c(C(O)(COCCc2ccccc2)C(F)(F)F)cc1C (stereo not shown) [E.021, N-ethyl-N′-[5-methoxy-2-methyl-4-[2,2,2-trifluoro-1-hydroxy-1-(2-phenylethoxymethyl)ethyl]phenyl]-N-methyl-formamidine]
≥ 80%: all assays above

CCN(C)/C=N/c1cc(OC)c(C(O)(CCOc2ccc(F)cc2)C(F)(F)F)cc1C (stereo not shown) [E.053, N-ethyl-N′-[4-[3-(4-fluorophenoxy)-1-hydroxy-1-(trifluoromethyl)propyl]-5-methoxy-2-methyl-phenyl]-N-methyl-formamidine]
≥ 80%: all assays above

CCOC1CCC(C(O)(c2cc(C)c(/N=C/N(C)CC)cc2OC)C(F)(F)F)CC1 (stereo not shown) [E.080, N′-[4-[1-(4-ethoxycyclohexyl)-2,2,2-trifluoro-1-hydroxy-ethyl]-5-methoxy-2-methyl-phenyl]-N-ethyl-N-methyl-formamidine]
≥ 80%: all assays above

CCCOC1CCC(C(O)(c2cc(C)c(/N=C/N(C)CC)cc2OC)C(F)(F)F)CC1 (stereo not shown) [E.079, N-ethyl-N′-[5-methoxy-2-methyl-4-[2,2,2-trifluoro-1-hydroxy-1-(4-propoxycyclohexyl)ethyl]phenyl]-N-methyl-formamidine]
≥ 80%: all assays above

C#CCOCCC(O)(c1cc(C)c(/N=C/N(C)CC)cc1OC)C(F)(F)F (stereo not shown) [E.050, N-ethyl-N′-[4-[1-hydroxy-3-prop-2-ynoxy-1-(trifluoromethyl)propyl]-5-methoxy-2-methyl-phenyl]-N-methyl-formamidine]
≥ 80%: all assays above

From US10925283B2, “Microbiocidal phenylamidine derivatives” (SYNGENTA PARTICIPATIONS AG, priority 2016, dated 2021)
